Measured values taken from ChEMBL document CHEMBL5252515, “Discovery of 6-Amino-2-{[(1S)-1-methylbutyl]oxy}-9-[5-(1-piperidinyl)pentyl]-7,9-dihydro-8H-purin-8-one (GSK2245035), a Highly Potent and Selective Intranasal Toll-Like Receptor 7 Agonist for the Treatment of Asthma” (J Med Chem, 2016).
pEC50: −log10 of the molar value. Calls of active or inactive are those of the source. The calls are words filed in the database; no cut-off is given here.

Columns and labels:
Cynomolgus monkey [1] = test: Induction of plasma cytokines in cynomolgus monkey; assay type: functional, organism-based; conditions: Macaca fascicularis
[2] = Tmax in cynomolgus monkey after intranasal administration; assay type: ADME, Macaca fascicularis; conditions: in vivo, inhaled or intranasal
Toll-like receptor 7 [3] = molecular target: T1, Toll-like receptor 7 (Homo sapiens, UniProt Q9NYK1); test: Agonist activity at TLR7 in human whole blood assessed as induction of TNFalpha production after 20 hrs by electrochemiluminescence assay; assay type: tissue-based
T1 sequence (Q9NYK1 whole entry): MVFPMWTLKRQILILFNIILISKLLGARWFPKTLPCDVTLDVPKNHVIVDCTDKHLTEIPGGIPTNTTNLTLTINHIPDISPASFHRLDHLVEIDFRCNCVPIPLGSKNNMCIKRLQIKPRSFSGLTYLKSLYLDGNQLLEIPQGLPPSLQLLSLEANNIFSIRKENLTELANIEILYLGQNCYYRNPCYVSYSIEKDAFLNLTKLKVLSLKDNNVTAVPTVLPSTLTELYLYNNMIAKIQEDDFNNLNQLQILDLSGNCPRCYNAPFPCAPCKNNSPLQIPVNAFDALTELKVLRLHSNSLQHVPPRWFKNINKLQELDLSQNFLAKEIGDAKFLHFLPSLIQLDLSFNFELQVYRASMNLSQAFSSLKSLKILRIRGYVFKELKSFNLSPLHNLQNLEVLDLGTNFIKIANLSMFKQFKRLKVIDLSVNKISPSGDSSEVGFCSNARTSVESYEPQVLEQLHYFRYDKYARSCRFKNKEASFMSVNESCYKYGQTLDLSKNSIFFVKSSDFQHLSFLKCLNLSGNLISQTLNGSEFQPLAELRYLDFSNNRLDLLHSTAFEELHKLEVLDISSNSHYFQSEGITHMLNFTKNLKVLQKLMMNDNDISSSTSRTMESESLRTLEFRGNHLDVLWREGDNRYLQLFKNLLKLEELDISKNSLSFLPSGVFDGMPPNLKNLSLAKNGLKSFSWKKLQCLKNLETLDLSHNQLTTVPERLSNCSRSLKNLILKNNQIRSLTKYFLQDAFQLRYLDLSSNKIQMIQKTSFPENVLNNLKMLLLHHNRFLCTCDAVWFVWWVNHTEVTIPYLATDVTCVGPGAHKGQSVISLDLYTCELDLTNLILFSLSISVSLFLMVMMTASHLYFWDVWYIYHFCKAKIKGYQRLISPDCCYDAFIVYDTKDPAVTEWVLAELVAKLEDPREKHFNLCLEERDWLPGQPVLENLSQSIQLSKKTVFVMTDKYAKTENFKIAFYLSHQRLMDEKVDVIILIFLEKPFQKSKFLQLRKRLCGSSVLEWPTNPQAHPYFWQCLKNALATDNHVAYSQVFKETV

PBMC [4] = test: Immunomodulatory activity in human PBMC assessed as reduction in timothy grass induced IL-5 level after 6 days; assay type: functional, cell-based; conditions: dose 0.01-10000 nM, time 6.0 day
[5] = Bioavailability in rat after intranasal administration; assay type: ADME, organism-based; conditions: in vivo, inhaled or intranasal
Toll-like receptor 7 [6] = molecular target: T1, Toll-like receptor 7; test: Agonist activity at TLR7 in human whole blood assessed as induction of IFNalpha production after 20 hrs by electrochemiluminescence assay; assay type: tissue-based
Cynomolgus monkey [7] = test: Increase in TNF-alpha level in cynomolgus monkey serum at 3000 ng/kg, administered intranasally after 6 hrs; assay type: functional, organism-based; conditions: Macaca fascicularis
[8] = Ocular toxicity in monkey assessed as aqueous cells and aqueous flare at 1000 ug/ml, post single dose administration after 6 hrs; parameters: species or system Macaca mulatta; conditions: rhesus monkey, in vivo, dose 1000 µg/ml
[9] = Tmax in rat after intranasal administration; assay type: ADME; conditions: in vivo, inhaled or intranasal
[10] = molecular target: T2, Toll-like receptor 7 (Macaca fascicularis) (UniProt B3Y652); test: In vivo target occupancy at TLR7 in cynomolgus monkey assessed as fold increase in IFIT2 mRNA expression in nasal scrape at 30 ng/kg administered intranasally incubated for 24 hrs by TaqMan analysis (reference value: 2.1); assay type: functional
T2 sequence (whole entry): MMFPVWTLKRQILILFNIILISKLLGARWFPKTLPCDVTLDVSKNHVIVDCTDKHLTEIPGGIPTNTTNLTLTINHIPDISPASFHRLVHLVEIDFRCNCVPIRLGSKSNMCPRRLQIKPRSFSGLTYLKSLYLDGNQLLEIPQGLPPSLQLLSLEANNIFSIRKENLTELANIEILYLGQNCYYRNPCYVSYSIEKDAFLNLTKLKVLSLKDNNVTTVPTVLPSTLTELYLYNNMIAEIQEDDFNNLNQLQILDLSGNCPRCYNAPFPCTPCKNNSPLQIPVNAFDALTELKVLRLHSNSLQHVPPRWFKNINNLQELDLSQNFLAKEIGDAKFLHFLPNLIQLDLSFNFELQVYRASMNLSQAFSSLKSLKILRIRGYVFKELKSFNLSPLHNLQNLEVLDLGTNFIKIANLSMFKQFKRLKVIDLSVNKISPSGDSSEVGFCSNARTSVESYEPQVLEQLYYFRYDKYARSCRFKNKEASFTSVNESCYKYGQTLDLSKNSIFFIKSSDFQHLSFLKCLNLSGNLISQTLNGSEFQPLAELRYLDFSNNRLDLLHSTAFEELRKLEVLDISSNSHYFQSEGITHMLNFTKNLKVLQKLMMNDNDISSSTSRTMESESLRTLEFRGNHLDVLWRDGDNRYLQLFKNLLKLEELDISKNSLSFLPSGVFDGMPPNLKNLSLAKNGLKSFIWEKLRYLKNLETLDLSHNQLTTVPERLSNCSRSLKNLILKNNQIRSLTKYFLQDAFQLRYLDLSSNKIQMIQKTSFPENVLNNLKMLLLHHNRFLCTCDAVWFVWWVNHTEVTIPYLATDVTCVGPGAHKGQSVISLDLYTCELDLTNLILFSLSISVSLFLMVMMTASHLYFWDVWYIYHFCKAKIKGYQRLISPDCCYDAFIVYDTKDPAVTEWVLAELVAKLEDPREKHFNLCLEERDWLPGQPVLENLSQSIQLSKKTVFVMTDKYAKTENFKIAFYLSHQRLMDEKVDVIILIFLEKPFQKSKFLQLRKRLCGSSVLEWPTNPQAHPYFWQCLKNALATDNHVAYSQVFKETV

PBMC [11] = test: Immunomodulatory activity in human PBMC assessed as reduction in timothy grass induced IL-13 level after 6 days; assay type: functional, cell-based; conditions: dose 0.01-10000 nM, time 6.0 day
[12] = Toxicity in monkey assessed as NOAEL after 8 weeks; parameters: species or system Macaca mulatta; conditions: rhesus monkey, in vivo, 1344 h
PBMC [13] = test: Immunomodulatory activity in human PBMC assessed as IFNalpha production incubated for 6 days in presence of allergen timothy grass; assay type: functional, cell-based; conditions: time 6.0 day
Mus musculus [14] = test: Increase in IFN-alpha level in intranasally dosed BALB/c mouse nasal lavage after 6 hrs; assay type: functional, organism-based
Mus musculus [15] = test: Increase in IFN-alpha level in BALB/c mouse serum at 0.3 mg/kg, administered intranasally after 6 hrs by ELISA; assay type: functional, organism-based
PBMC [16] = test: Immunomodulatory activity in human PBMC assessed as IL-10 production incubated for 6 days in presence of allergen house dust mite; assay type: functional, cell-based; conditions: time 6.0 day
Toll-like receptor 7 [17] = molecular target: T1, Toll-like receptor 7; test: Agonist activity at TLR7 in human PBMC assessed as IFN-alpha production after 24 hrs by electrochemiluminescence assay; assay type: cell-based
Toll-like receptor 7 [18] = molecular target: T1, Toll-like receptor 7; test: Agonist activity at TLR7 in human whole blood assessed as induction of IL-10 production after 20 hrs by electrochemiluminescence assay; assay type: tissue-based

## CCC[C@H](C)Oc1nc(N)c2[nH]c(=O)n(CCCCCN3CCCCC3)c2n1 [GSK-2245035]
Cynomolgus monkey [1]
  Activity: inactive
[2]
  Tmax: ≤ 5 min
Toll-like receptor 7 [3]
  pEC50: 5.00
PBMC [4]
  Activity: Dose-Dependent Effect
[5]
  bioavailability: 12%
Toll-like receptor 7 [6]
  pEC50: 9.05
Cynomolgus monkey [7]
  Activity: inactive
[8]
  Activity: Toxic
[9]
  Tmax: ≤ 5 min
[10]
  fold change (FC): 124
PBMC [11]
  Activity: Dose-Dependent Effect
[12]
  NOAEL: 0.0359 µg/kg
PBMC [13]
  Activity: Active
Mus musculus [14]
  Activity: inactive
Mus musculus [15]
  Activity: inactive
PBMC [16]
  Activity: Active
Toll-like receptor 7 [17]
  pEC50: 8.10
Toll-like receptor 7 [18]
  pEC50: 6.60
